Results reported in article PMC3592886, “Utilization of Quantitative In Vivo Pharmacology Approaches to Assess Combination Effects of Everolimus and Irinotecan in Mouse Xenograft Models of Colorectal Cancer” (PLoS ONE, 2013).
Where two headings read alike, the source gives them in different places. Marks after values point to notes of the source that are not given here.

Columns and labels:
HCT116 tumor xenografts = system: HCT116 tumor xenografts; parameters: method as in PMID 19223496, PMID 20124452; details: everolimus at 10–12 mg/kg, mice bearing HCT116 tumor xenografts; cited from earlier work
[1] = everolimus, humans; cited from earlier work
[2] = Simulation of everolimus plasma concentrations at 5 mg/kg (two-compartment model); parameters: species or system mice
Method: (§1) Plasma and tumor pharmacokinetic parameters were calculated by noncompartmental analysis with WinNonlin. Everolimus plasma data was fit to a two-compartment model with first-order absorption and simulations of plasma concentrations at a 5 mg/kg dose of everolimus were performed by SAAM II version 2.1 (The Epsilon Group, Charlottesville, VA/University of Washington).
Everolimus [nmol/g tissue] […]
Everolimus plasma (A) and tumor (B) pharmacokinetics were measured in nude mice bearing HT29 xenografts.
10 (●) mg/kg everolimus daily for 7 days prior to sample collection.
Data represents the average of 3 samples and the lines represent the data fits to a two-compartment model with first-order absorption. The parameter estimates from the fits to the 2.5 and 10 mg/kg data were then used to simulate the steady-state dosing of 5 mg/kg RAD001 (C).
Simulations were generated based on daily dosing. Additional details of the study can be found in the main text.
To simulate data at different concentrations between 2.5 and 10 mg/kg the following assumptions were made; (1) everolimus absorption and its’ elimination from the central compartment is constant across dose levels, and (2) the volume of the central compartment varies linearly between doses. We believe these assumptions are valid since the pharmacokinetics appeared to be linear between 2.5 and 10 mg/kg doses, and the model fits the measured data at 2.5 and 10 mg/kg doses well and agrees with pharmacokinetic parameters estimated by non-compartmental analysis (Table S1). […]

[3] = system: ribosomal phospho-S6 kinase (pS6RP); test: Western blot, pS6RP in CRC cell lines; format: cell-based; details: everolimus 20 nM, 24 hours, all cell lines
Method: Cells were seeded into 6-well plates 24 hours prior to treatment with each drug alone or in combination for 24 hours. Cells were scraped into RIPA buffer containing protease inhibitors, EDTA, NaF, and sodium orthovanadate. Total protein was determined using the Pierce 660 nm Protein Assay (Pierce, Rockford, IL). Thirty micrograms of total protein was loaded onto a 4–12% gradient gel, electrophoresed and transferred to nitrocellulose using the iBlot system (Invitrogen, Carlsbad, CA). Membranes were blocked for one hour at room temperature with Licor Blocking Buffer (Licor, Lincoln, NE) prior to overnight incubation at 4°C with one of the following antibodies: pS6RP, tS6RP, pAKT, tAKT, pERK, tERK, p21, PARP, actin and α-tubulin (Cell Signaling, Beverly, MA). All antibodies were used at a 1∶1000 dilution except for pERK, which was used at 1∶2000. Following primary antibody incubation, blots were washed in TBS-Tween(0.1%), then incubated with the appropriate secondary antibody at 1∶15,000 (Licor, Lincoln, NE) for one hour at room temperature. After three additional washes, blots were developed using the Licor Odyssey (Licor, Lincoln, NE).

HCT116 cells = test: Sulforhodamine B (SRB) anti-proliferation assay, HCT116; format: cell-based
Method: Cytoxic effects were determined using the sulforhodamine B (SRB) assay. Briefly, 5000 viable cells were plated into 96-well plates and incubated overnight prior to exposure with different concentrations of drugs. Cells were exposed to increasing concentrations of everolimus (0–200 nM), SN38 (0–8 nM), and combinations of the two. Following a 72 hour incubation, media was removed and cells were fixed with cold 10% trichloroacetic acid for 30 minutes at 4° C. Cells were washed with water and stained with 0.4% SRB for 30 minutes at room temperature. Cells were washed again with 1% acetic acid and stain was solubilized with 10 mM tris at room temperature and read at an OD of 565 nm. […] The resulting Combination Index (CI) was used as a quantitative measure of the degree of interaction between different drugs. A CI value equal to 1 denotes additivity; CI greater than 1, antagonism; CI less than 1, synergism.

[4] = Pharmacokinetic study of everolimus in mice bearing HT29 tumors (plasma and tumor, LC/MS/MS); format: in vivo; details: for Cmax / Tmax / AUC(0-t) / CL/F / Vd/F / half-life: nude; for CL/F: read-out: CLss/F (converted); for Vd/F: read-out: Vz/F; for half-life: read-out: t½ (converted)
Method: A pharmacokinetic study of everolimus was conducted in mice bearing HT29 tumors (average volume ∼300 mm^3). Mice were treated with either 2.5 or 10 mg/kg everolimus daily for 7 days by oral gavage. Three mice per dose level were sacrificed by cardiac stick exsanguination at 30 minutes, 2, 4, 6 and 24 hours following drug administration on day 7. Plasma and tumor tissue were snap-frozen in liquid N2 and stored at −70°C until analyzed.
Everolimus was measured in plasma and tumors by LC/MS/MS assay. Analytical standards, quality control (QC) and unknowns were all prepared by adding 200 µl of unknown or spiked blank plasma or tumor homogenate (100 mg/ml in water) samples to a 1.5 ml microcentrifuge tube. Samples were extracted by the addition of 1 ml methyl tert-butyl ether (MTBE) followed by 10 min vortex mixing. Samples were centrifuged at 13,000 RPM for 10 min and the supernatant collected and 900 µl transferred to a clean glass test tube. Samples were evaporated to dryness using a rotary evaporator followed by re-suspension in 100 µl of 50% acetonitrile/50% 10 mM ammonium acetate and transferred to auto-sampler vials for analysis. Mass spectra for extracted samples was obtained on a MDS Sciex 3200 Q-TRAP triple quadrupole mass spectrometer (Applied Biosystems, Inc., Foster City, CA) with a turbo ionspray source interfaced to an Agilent 1200 Series Binary Pump SL HPLC system (Santa Clara, CA).The lower and upper limits of quantitation for the assay were 1 and 5000 nM, respectively. Accuracy and precision (% RSD) based on analysis of standards and QC samples for this assay were 90.7% and 5.5% for plasma and 93.0% and 4.2% for tumor. Additional details may be found in Supplement S1 (section SA.1.).
as §1

[5] = everolimus 5 mg/kg dose in mice
[6] = 2.5 mg/kg daily oral for 7 days, Mouse, plasma, steady-state
[7] = 10 mg/kg daily oral for 7 days, Mouse, plasma, steady-state
[8] = mouse, po, HT29 tumor, 2.5 mg/kg, mice
[9] = mouse, po, HT29 tumor, 10 mg/kg, mice
[10] = mouse, po, plasma, 2.5 mg/kg, mice, non-compartmental analysis
[11] = mouse, po, plasma, 10 mg/kg, mice, non-compartmental analysis

## CO[C@H]1C[C@@H]2CC[C@@H](C)[C@@](O)(O2)C(=O)C(=O)N2CCCC[C@H]2C(=O)O[C@H]([C@H](C)C[C@@H]2CC[C@@H](OCCO)[C@H](OC)C2)CC(=O)[C@H](C)/C=C(\C)[C@@H](O)[C@@H](OC)C(=O)[C@H](C)C[C@H](C)/C=C/C=C/C=C/1C [Everolimus, 40-O-(2-hydroxyethyl)-rapamycin]
HCT116 tumor xenografts
  tumor growth inhibition, single agent: 45–55%
[1]
  plasma protein binding: 75%
[2]; 5 mg/kg in mice, from simulated data
  AUCss,free: 0.037 µg·h/mL
[2]; [5]
  average free concentration (Css,avg): about 1.5 nM
  free plasma concentration, Cmax: 0.006 µM
  free plasma concentration, Cmin: 0.0002 µM
[3]
  effect on ribosomal phospho-S6 kinase (pS6RP): able to inhibit
HCT116 cells; HCT116, RAD (20 nM), SN38 (4 nM) or the combination of the two, Figure 2
  %Growth Inhibition: 49%
HCT116 cells; Homo sapiens, HCT-116, HCT116 cells
  IC50: 0.025 µM
[4]; [6]
  Cmin: 12±6 ^b ng/mL
  Cmax: 0.35 ± 0.23 µg/mL
[4]; [7]
  Cmin: 59±5 ^b ng/mL
  Cmax: 1.68 ± 0.277 µg/mL
[4]; 10 mg/kg in mice, 99% plasma protein binding used
  AUCss,free (steady-state free plasma exposure): 0.116 µg·h/mL
[4]; [8]
  Cmax: 0.052 µM
  Tmax: 0.5 h
[4]; mouse, po, HT29 tumor, 2.5 mg/kg, mice, read-out: AUC0→24
  AUC(0-t): 742 nM·h
[4]; [9]
  Cmax: 0.25 µM
  Tmax: 4 h
[4]; mouse, po, HT29 tumor, 10 mg/kg, mice, read-out: AUC0→24
  AUC(0-t): 3930 nM·h
[4]; [10]
  Cmax: 0.365 µM
  Tmax: 0.5 h
  CL/F: 1.2 L/h/kg
  Vd/F: 10.8 L/kg
[4]; mouse, po, plasma, 2.5 mg/kg, mice, non-compartmental analysis, read-out: AUC0→24
  AUC(0-t): 2000 nM·h
[4]; [11]
  Cmax: 1.76 µM
  Tmax: 0.5 h
  CL/F: 0.83 L/h/kg
  Vd/F: 6 L/kg
[4]; mouse, po, plasma, 10 mg/kg, mice, non-compartmental analysis, read-out: AUC0→24
  AUC(0-t): 12100 nM·h
[4]; 2.5 mg/kg daily oral for 7 days, Mouse, plasma, read-out: AUC0→t
  AUC(0-t): 1.92 µg·h/mL
[4]; 2.5 mg/kg daily oral for 7 days, Mouse, plasma
  half-life: 6 h
[4]; 10 mg/kg daily oral for 7 days, Mouse, plasma, read-out: AUC0→t
  AUC(0-t): 11.6 µg·h/mL
[4]; 10 mg/kg daily oral for 7 days, Mouse, plasma
  half-life: 5 h
